The text below walks through data of publication PMC4913735, “Non‐glycosidic compounds can stimulate both human and mouse iNKT cells” (European Journal of Immunology, 2016).

Experiment [1] deals with hCD1d C1R cells. The experiment in a line: Tetrameric human iNKT‐cell TCR staining of lipid‐loaded hCD1d C1R cells (flow cytometry). It counts as cell-based. The conditions noted are these: compared with α‐GalCer; overnight incubation. The method, then:
Two analogs of ThrCer, ThrCer 6, and ThrCer 7 were synthesized. […] We first carried out measurements to assess the binding affinity of these ThrCer analogs to human iNKT‐cell TCR (Fig. 1B). Recombinant human CD1d (hCD1d) molecules were refolded in vitro with ThrCer 6 and ThrCer 7 separately and coupled to BIAcore chips, over which refolded human iNKT‐cell TCR was injected at different concentrations 34. […]
Figure 1 ThrCer 6 and ThrCer 7 are potent human iNKT‐cell agonists and display a prolonged interaction with the iNKT‐cell TCR when in complex with human CD1d molecules. […] (B) Equilibrium binding and kinetics measurements of a soluble human iNKT‐cell TCR were assessed for hCD1d molecules refolded with α‐GalCer, ThrCer, ThrCer 6, and ThrCer 7. K d values (μM) were calculated from equilibrium binding. […] After incubating overnight, the degree of iNKT‐cell recognition, assessed either (C) by using a tetrameric human iNKT‐cell TCR by flow cytometry or (D) by the addition of human iNKT cells to cultures and determining the amount of IFN‐γ released in supernatant by ELISA. (E) Human DC maturation was assessed following coculture with human iNKT cells and l μg lipids after 40 h, as determined by CD86 upregulation on DC by flow cytometry. […]
(Flow cytometry measures light scatter and fluorescence of single cells or particles in a stream.)

Experiment [2] has as its system murine iNKT cells. The experiment in a line: In vivo iNKT‐cell activation in mice: serum IFN‐γ/IL‐4 ELISA and splenic DC maturation. Also on record: species or system C57BL/6 mice. The note with it: for DC maturation (CD40 on CD11c+ cells) in iNKT cell deficient mice: CD1d−/− mice. The method, then:
Figure 2 Enhanced in vivo potency of ThrCer 6. (A) Equilibrium binding and kinetics measurements of a soluble mouse iNKT‐cell TCR were assessed for mCD1d molecules refolded with α‐GalCer, ThrCer 6 and ThrCer 7. K d values (μM) were calculated from equilibrium binding. (B–D) Mice were immunized with 1 μg lipids i.v. and (B) IL‐4 and (C) IFN‐γ were detected by ELISA in blood sera at either 2 or 18 h, respectively. (D) At 18 h, immunized mice were sacrificed and splenocytes stained with anti‐CD11c and anti‐CD86 antibodies to determine the extent of maturation by the expression of CD86 on gated DCs (CD11c^+) using flow cytometry. (E and F) Mice were immunized i.v. with titrating doses of α‐GalCer, ThrCer, ThrCer 6, and ThrCer 7 and (E) IFN‐γ and (F) IL‐4 were detected in blood sera at 2, 12, and 18 h by ELISA. Median fluorescent intensity = MFI. (B–F) Data are shown as mean ± SEM (n = 3/group) and are representative of two independent experiments (A), three experiments (B–D), or a single experiment (E and F). *p < 0.05; Student's t‐test.
Concentrations of murine IFN‐γ and IL‐4 in serum were determined using standard sandwich ELISAs using the R4‐6A2 capture Ab for IFN‐γ (eBioscience), and the ID11 capture Ab for IL‐4 (Endogen). Biotinylated XMG1.2 (eBioscience) was used as the detection Ab for IFN‐γ and biotinylated BVD6‐24G2 (eBioscience) was used as the detection Ab for IL‐4. Human IFN‐γ in supernatants was determined using the capture Ab NIB42 (BD Pharmingen) and biotinylated 4S.B3 (BD Pharmingen) as the detection Ab.
Lipid compounds were solubilized in 150 mM NaCl and 0.5% Tween 20 (vehicle). All substances were diluted in PBS and administered either i.v., or i.m. Unless stated otherwise, doses used per injection were 400 μg OVA (Sigma) and 100 ng of lipid compounds or vehicle.
Human iNKT‐cells were expanded as described previously 34. For lipid titration studies, hCD1d C1R cells were pulsed with lipids overnight and following washes, cocultured with human iNKT cells. The presence of IFN‐γ was detected in supernatants by ELISA 12. For DC maturation studies, immature DCs were collected on day 4 and pulsed with lipids and iNKT cells 34. DC maturation was determined by the upregulation of CD86 by flow cytometry on a FACSCalibur with CellQuest software (BD) and analyzed with FlowJo software (Tree Star). For in vivo murine APC phenotype analysis the expression of CD86 or CD40 on CD11c^+ APCs from spleen were determined after 18 h post i.v. of 1 μg lipids on a CyAn cytometer and analyzed with FlowJo software (Tree Star).
(An ELISA detects its analyte on a solid surface through an enzyme-linked reagent.)

Experiment [3] has as its system NK cells. Description: In vivo transactivation of NK cells (intracellular IFN‐γ, CD69) by flow cytometry. The note with it: 1 μg i.v.; splenocytes at 12, 24 or 33 h. Also on record: species or system mice. The protocol:
Supplementary file EJI-46-1224-s001.pdf: Figure S1. […] Mice were immunized i.v. with 1 μg of lipids and splenocytes stained with anti‐CD11c and anti‐CD40 mAb to determine the extent of maturation by the expression of CD40 on gated DCs (CD11c+ cells) using flow cytometry. (n=3/group) Median Fluorescent Intensity=MFI. Error bars are mean ± SEM. Figure S2. IFN‐γ in serum of mice injected intramuscularly (i.m.) with iNKT cell agonists. C57BL/6 mice (n=4) or syngeneic CD1d knockout Mice (n=2) were injected intramuscularly with α‐GalCer, ThrCer 6 or vehicle. 18 hours later blood samples were tested for IFN‐γ using ELISA. As controls, mice (n=2) were injected intravenously with α‐GalCer or ThrCer 6. Error bars are mean ±SEM. one of two experiment is shown *p=0.0114. Figure S3. Transactivation of NK cells using non‐glycosidic analogues. Mice were immunized i.v. with 1 μg of lipids and sacrificed at 12 h, 24 h or 33 h post injection (n=3/group). Splenocytes were assessed by flow cytometry for the transactivation of NK cells (DX5+NK1.1+CD3‐ cells) using (B) the surface activation marker, CD69, or (A) intracellular IFN‐γ staining. Error bars are mean ± SEM. *p < 0.05. Representative of two independent experiments Figure S4. […] Data relating to numbers of ovalbumin specific T cells was analysed using the following gating stratagy: From top left to right and then bottom left to right. […]

Each structure is given as a SMILES string.

With `CCCCCCCCCCCCCCCCCCCCCCCCCC(=O)N[C@@H](CO[C@H]1CC[C@H](O)[C@H](O)[C@H]1O)[C@H](O)[C@H](O)CCCCCCCCCCCCCC` [ThrCer 6], the “Staining of lipid‐loaded hCD1d C1R cells by tetrameric human iNKT‐cell TCR” value in experiment [1] is recorded as “enhanced staining”. In experiment [2] (1 μg i.v., serum IL‐4 2 h, IFN‐γ 18 h, CD86 on CD11c+ DC, greater than ThrCer, similar to α‐GalCer), the “Ability to activate murine iNKT cells and mature DC in vivo” value was “marked increase”. Further, the “DC maturation (CD40 on CD11c+ cells) in iNKT cell deficient mice” value in experiment [2] (1 μg i.v.) is given as “do not mature DCs”. Further, the “Serum IFN‐γ secretion after intramuscular injection” value in experiment [2] (i.m., 18 h post injection, compared with α‐GalCer) was “higher”. In experiment [2] (i.v., after 12 and 18 h, compared with α‐GalCer), the “Serum IFN‐γ secretion, in vivo dose titration” value is given as “significantly enhanced”. Besides, the “Transactivation of NK cells (intracellular IFN‐γ, CD69)” value in experiment [3] is “comparable transactivation of NK cells”.

On to `CCCCCCCCCCCCCCCCCCCCCCCCCC(=O)NC(COC1CCCC(O)C(O)C1O)C(O)C(O)CCCCCCCCCCCCCC` (stereo not drawn) [ThrCer 7], for which the “Staining of lipid‐loaded hCD1d C1R cells by tetrameric human iNKT‐cell TCR” value in experiment [1] is “enhanced staining”. The “DC maturation (CD40 on CD11c+ cells) in iNKT cell deficient mice” value in experiment [2] (1 μg i.v.) was “do not mature DCs”.

For `CCCCCCCCCCCCCCCCCCCCCCCCCC(=O)N[C@@H](CO[C@H]1O[C@H](CO)[C@H](O)[C@H](O)[C@H]1O)[C@H](O)[C@H](O)CCCCCCCCCCCCCC` [α‐GalCer, α‐galactosylceramide, reference compound], the “Transactivation of NK cells (intracellular IFN‐γ, CD69)” value in experiment [3] is “comparable transactivation of NK cells”.
